For 53 compounds, IC50 results are on record in US11478460B2, “Diaryl substituted 6,5-fused ring compounds as C5aR inhibitors” (CHEMOCENTRYX, INC., priority 2017, dated 2022).

pIC50: −log10 of the molar value.

Sequence of C5aR (P21730 whole entry): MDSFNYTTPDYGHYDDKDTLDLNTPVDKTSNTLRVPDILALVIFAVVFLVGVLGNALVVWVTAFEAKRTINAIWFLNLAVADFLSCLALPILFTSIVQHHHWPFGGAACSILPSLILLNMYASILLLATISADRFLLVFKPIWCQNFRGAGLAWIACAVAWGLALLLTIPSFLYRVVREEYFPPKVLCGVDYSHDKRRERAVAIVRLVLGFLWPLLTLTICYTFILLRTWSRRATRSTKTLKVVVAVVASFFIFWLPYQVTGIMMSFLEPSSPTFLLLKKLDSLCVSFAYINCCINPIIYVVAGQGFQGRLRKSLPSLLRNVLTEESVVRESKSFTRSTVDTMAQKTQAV

In this assay the target is C5aR (Homo sapiens (Human), UniProt P21730). The assay is described as follows: Chemotaxis assay using U937 cells (C5aR mediated migration). The note with it: read-out: Mig IC50. The assay is classed as cell-based. How it is done:
U937 cells are a monocytic cell line which express C5aR, and are available from ATCC (VA). These cells were cultured as a suspension in RPMI-1640 medium supplemented with 2 mM L-glutamine, 1.5 g/L sodium bicarbonate, 4.5 g/L glucose, 10 mM HEPES, 1 mM sodium pyruvate, and 10% FBS. Cells were grown under 5% CO2/95% air, 100% humidity at 37° C. and subcultured twice weekly at 1:6 (cells were cultured at a density range of 1×10^5 to 2×10^6 cells/mL) and harvested at 1×10^6 cells/mL. Prior to assay, cells are treated overnight with 0.5 mM of cyclic AMP (Sigma, OH) and washed once prior to use. cAMP treated U937 cells can be used in C5aR ligand binding and functional assays.
Optionally, compounds may be further assayed for their ability to inhibit chemotaxis in cells. Chemotaxis assays are performed using 5 μm pore polycarbonate, polyvinylpyrrolidone-coated filters in 96-well chemotaxis chambers (Neuroprobe; Gaithersburg, Md.) using chemotaxis buffer (Hank's balanced salt solution (HBSS) and 1% FBS). C5aR ligands (i.e., C5a, R&D Systems; Minneapolis, Minn.) are use to evaluate compound mediated inhibition of C5aR mediated migration. Other chemokines (i.e., SDF-1α; R&D Systems; Minneapolis, Minn.) are used as specificity controls. The lower chamber is loaded with 29 μl of chemokine (i.e., 0.03 nM C5a) and varying amounts of compound; the top chamber contains 100,000 U937 or neutrophil cells in 20 μl. The chambers are incubated 1.5 hours at 37° C., and the number of cells in the lower chamber quantified either by direct cell counts in five high powered fields per well or by the CyQuant assay (Molecular Probes), a fluorescent dye method that measures nucleic acid content and microscopic observation.
The compounds in Table 1, below, were prepared using the methods described above. Characterization data is provided for each compound listed. Activity is provided as follows for the chemotaxis assay using U937 cells as described herein (Example 12): +, 500 nM<IC50; ++, 50 nM<IC50≤500 nM; +++, 5 nM<IC50≤50 nM; and ++++, IC50≤5 nM.
The term pIC50 denotes the negative decadic logarithm of the IC50, by convention in mol/L. For the compound `Cc1cc(Cl)cnc1N1CCc2nn(-c3c(C)cccc3OCC(C)C)c(-c3ccc(NC(N)=O)c(F)c3)c2C1` [Example 1.206], the pIC50 was not below 8.30.
On to `Cc1cccc(C)c1-n1nc2c(c1-c1cc(F)c(NC(N)=O)cc1F)CN(c1ncc(C3CC3)cc1F)CC2` [Example 1.089], for which the pIC50 was not below 8.30.
`CCc1cccc(CC)c1-n1nc2c(c1-c1cc(F)c(NC(N)=O)cc1F)CN(Cc1cccc(C(F)(F)F)c1)C(C)(C)C2` [Example 1.014]: the pIC50 is not below 8.30.
In the case of `Cc1cnc(N2CCc3nn(-c4c(C)cccc4OCC(C)C)c(-c4ccc(NC(N)=O)c(F)c4)c3C2)c(Cl)c1` [Example 1.213], the pIC50 was not below 8.30.
With `Cc1cccc(OCC(C)C)c1-n1nc2c(c1-c1ccc(NC(N)=O)cc1)CN(c1cc(C(F)(F)F)ccc1C(F)(F)F)CC2` [Example 1.342], the negative-log IC50 (pIC50) is not below 8.30.
In the case of `CCc1cccc(CC)c1-n1nc2c(c1-c1ccc(NC(N)=O)cc1)CN(Cc1c(C)cccc1C)CC2` [Example 1.290] it was 7.30 to 8.30.
For `CCc1cccc(C)c1-n1nc2c(c1-c1ccc(NC(N)=O)cc1)CN(C(=O)OC(C)(C)C)CC2` [Example 1.399], the negative-log IC50 (pIC50) is 6.30 to 7.30.
In the case of `CCc1cccc(CC)c1-n1nc2c(c1-c1cc(F)c(NC(N)=O)cc1F)CN(C(C)c1ccc(F)cc1)CC2` (centres unmarked) [Example 1.152] it was not below 8.30; in that of `Cc1cccc(OCC(C)C)c1-n1nc2c(c1-c1ccc(NC(N)=O)cc1)CN(Cc1c(F)cccc1F)CC2` [Example 1.356], 7.30 to 8.30.
As for `Cc1cccc(OCC(C)C)c1-n1nc2c(c1-c1ccc(NC(N)=O)c(F)c1)CN(C(C)C1CCCC1)CC2` (centres unmarked) [Example 1.254], the negative-log IC50 (pIC50) is not below 8.30.
On to `CCc1cccc(CC)c1-n1nc2c(c1-c1cc(F)c(NC(N)=O)cc1F)CN(c1ncc(Cl)cc1Cl)[C@H](C)C2` [Example 1.018], for which the pIC50 was not below 8.30.
As to `Cc1cc(NC(N)=O)ccc1-c1c2c(nn1-c1c(C)cccc1OCC(C)C)CCN(c1cc(C(C)(C)C)ccc1C)C2` [Example 1.441], the negative logarithm of the IC50 (pIC50) is not below 8.30.
As to `COc1cccc(C)c1-n1nc2c(c1-c1ccc(N)cc1)CN(c1cc(C(C)(C)C)ccc1C)CC2` [Example 1.469], the negative logarithm of the IC50 (pIC50) was 6.30 to 7.30.
For `Cc1cccc(OCC(C)C)c1-n1nc2c(c1-c1cc(F)c(NC(N)=O)cc1F)CN(c1ncc(Cl)cc1Cl)CC2` [Example 1.210], the pIC50 was not below 8.30.
On to `Cc1cc(NC(N)=O)c(F)cc1-c1c2c(nn1-c1c(C)cccc1C)CCN(c1ncc(Cl)cc1Cl)C2` [Example 1.128], for which the negative-log IC50 (pIC50) is not below 8.30.
In the case of `COc1cccc(C)c1-n1nc2c(c1-c1ccc(NC(=O)NC(C)(C)C)cc1)CN(c1ccccc1C)CC2` [Example 1.488] it was less than 6.30.
Regarding `Cc1ccc(C(C)(C)C)cc1N1CCc2nn(-c3c(C)cccc3OCC(C)C)c(-c3ccc(NC(N)=O)cc3)c2C1` [Example 1.457], the pIC50 is not below 8.30.
For `CCc1cccc(CC)c1-n1nc2c(c1-c1cc(F)c(NC(N)=O)cc1F)CN(Cc1ccc(OC)cc1C(F)(F)F)CC2` [Example 1.053], the negative logarithm of the IC50 (pIC50) was not below 8.30.
On to `CCc1cccc(CC)c1-n1nc2c(c1-c1ccc(NC(N)=O)c(F)c1)CN(Cc1ccccc1C(F)(F)F)CC2` [Example 1.244], for which the pIC50 was not below 8.30.
Consider `Cc1cccc(OCC(C)C)c1-n1nc2c(c1-c1ccc(NC(N)=O)cc1)CN(CCC(C)(C)C)CC2` [Example 1.393], for which the negative-log IC50 (pIC50) was 6.30 to 7.30.
As to `CCc1cccc(CC)c1-n1nc2c(c1-c1cc(F)c(NC(N)=O)cc1F)CN(C(C)(C)c1ccccc1OC)CC2` [Example 1.149], the pIC50 is not below 8.30.
On to `Cc1cccc(OCC(C)C)c1-n1nc2c(c1-c1cc(F)c(NC(N)=O)cc1F)CN(c1ncc(C(C)C)cn1)CC2` [Example 1.166], for which the pIC50 is not below 8.30.
In the case of `Cc1ccc(C(C)(C)C)cc1N1CCc2nn(-c3c(C)cccc3C)c(-c3ccc(O)cc3)c2C1` [Example 1.452] it was 7.30 to 8.30; in that of `Cc1cccc(OCC(C)C)c1-n1nc2c(c1-c1ccc(NC(N)=O)cc1)CN(S(=O)(=O)c1ccccc1C(F)(F)F)CC2` [Example 1.298], 6.30 to 7.30.
For the compound `Cc1cccc(OCC(C)C)c1-n1nc2c(c1-c1ccc(NC(N)=O)cc1)CN(CC(C)C(F)(F)F)CC2` (centres unmarked) [Example 1.391], the pIC50 is 7.30 to 8.30.
As for `Cc1cccc(C)c1-n1nc2c(c1-c1cc(F)c(NC(N)=O)cc1F)CN(c1ncc(Cl)cc1F)CC2` [Example 1.132], the pIC50 is not below 8.30.
For the compound `Cc1cccc(OCC(C)C)c1-n1nc2c(c1-c1ccc(NC(N)=O)c(F)c1)CN(c1ncc(F)cc1F)CC2` [Example 1.249], the negative logarithm of the IC50 (pIC50) was not below 8.30.
Turning to `Cc1cccc(OCC(C)C)c1-n1nc2c(c1-c1ccc(NC(N)=O)cc1)CN(Cc1ccc(F)cc1C(F)(F)F)CC2` [Example 1.358], the negative logarithm of the IC50 (pIC50) was not below 8.30.
Consider `CCc1cccc(CC)c1-n1nc2c(c1-c1cc(F)c(NC(N)=O)cc1F)CN(C(C(=O)OC)c1ccccc1)CC2` (centres unmarked) [Example 1.148], for which the pIC50 is not below 8.30.
On to `Cc1cccc(OCC(C)C)c1-n1nc2c(c1-c1ccc(NC(N)=O)cc1)CN(Cc1c(F)cc(C(F)(F)F)cc1C(F)(F)F)CC2` [Example 1.334], for which the pIC50 is not below 8.30.
On to `Cc1cccc(OCC(C)C)c1-n1nc2c(c1-c1ccc(NC(N)=O)cc1)CN(c1ccc(Cl)cc1C(F)(F)F)CC2` [Example 1.317], for which the pIC50 is not below 8.30.
With `CCc1cccc(CC)c1-n1nc2c(c1-c1cc(F)c(NC(N)=O)cc1F)CN(C(C)(C)c1cccc(F)c1)CC2` [Example 1.195], the pIC50 was not below 8.30.
In the case of `Cc1ccc(F)cc1N1CCc2nn(-c3c(C)cccc3OCC(C)C)c(-c3ccc(NC(N)=O)cc3)c2C1` [Example 1.423], the pIC50 was 7.30 to 8.30.
Consider `CCc1cccc(CC)c1-n1nc2c(c1-c1cc(F)c(NC(N)=O)cc1F)CN(Cc1ccccc1C(F)(F)F)CC2` [Example 1.067], for which the pIC50 was not below 8.30.
`CCc1cccc(CC)c1-n1nc2c(c1-c1cc(F)c(NC(N)=O)cc1F)CN(Cc1ccc(C(F)(F)F)cc1F)CC2` [Example 1.066]: the pIC50 is not below 8.30.
For `CCc1cccc(CC)c1-n1nc2c(c1-c1cc(F)c(NC(N)=O)cc1F)CN(Cc1cc(Cl)ccc1Cl)C(C)(C)C2` [Example 1.023], the pIC50 is not below 8.30.
Consider `Cc1cc(C(F)(F)F)cnc1N1CCc2nn(-c3c(C)cccc3OCC(C)C)c(-c3ccc(NC(N)=O)cc3)c2C1` [Example 1.340], for which the negative logarithm of the IC50 (pIC50) was 7.30 to 8.30.
In the case of `Cc1cccc(C)c1-n1nc2c(c1-c1cc(F)c(NC(N)=O)cc1F)CN(c1ccc(C3CC3)cc1Cl)CC2` [Example 1.093] it was not below 8.30.
In the case of `COc1ccc(Cl)c(CN2CCc3nn(-c4c(C)cccc4OCC(C)C)c(-c4ccc(NC(N)=O)cc4)c3C2)c1` [Example 1.302] it was 7.30 to 8.30; in that of `Cc1cccc(C)c1-n1nc2c(c1-c1cc(F)c(NC(N)=O)cc1F)CN(C(C)(C)CO)CC2` [Example 1.088], less than 6.30.
Consider `Cc1cnc(N2CCc3nn(-c4c(C)cccc4OCC(C)C)c(-c4cc(F)c(NC(N)=O)cc4F)c3C2)nc1` [Example 1.158], for which the pIC50 was not below 8.30.
In the case of `Cc1cccc(OCC(C)C)c1-n1nc2c(c1-c1ccc(NC(N)=O)cc1)CN(Cc1ccccc1C(F)(F)F)CC2` [Example 1.361] it was not below 8.30.
On to `CCc1cccc(CC)c1-n1nc2c(c1-c1ccc(NC(N)=O)cc1)CN(Cc1cc(Cl)ccc1OC(C)C)CC2` [Example 1.284], for which the pIC50 was 7.30 to 8.30.
As for `Cc1cccc(OCC(C)C)c1-n1nc2c(c1-c1cc(F)c(NC(N)=O)cc1F)CN(c1ncncc1Cl)CC2` [Example 1.141], the pIC50 was not below 8.30.
For the compound `Cc1cccc(OCC(C)C)c1-n1nc2c(c1-c1ccc(NC(N)=O)cc1)CN(CC(C)(C)O)CC2` [Example 1.389], the negative-log IC50 (pIC50) is less than 6.30.
Regarding `Cc1cccc(C)c1-n1nc2c(c1-c1cc(F)c(NC(N)=O)cc1F)CN(c1ccc(Cl)cc1)CC2` [Example 1.095], the negative logarithm of the IC50 (pIC50) was not below 8.30.
In the case of `Cc1cccc(OCC(C)C)c1-n1nc2c(c1-c1ccc(NC(N)=O)c(F)c1)CN(CC(C)C(F)(F)F)CC2` (centres unmarked) [Example 1.262], the pIC50 is not below 8.30.
As for `CC(=O)Nc1cc(F)c(-c2c3c(nn2-c2c(C)cccc2C)CCN(c2ncc(Cl)cc2Cl)C3)cc1F` [Example 1.126], the pIC50 is 6.30 to 7.30.
Turning to `Cc1cccc(C)c1-n1nc2c(c1-c1ccc(NC(N)=O)cc1)CN(c1ccccc1C(C)C)CC2` [Example 1.478], the pIC50 is 6.30 to 7.30.
In the case of `Cc1cccc(OCC(C)C)c1-n1nc2c(c1-c1ccc(NC(N)=O)cc1)CN(c1cc(C(C)(C)C)ccc1F)CC2` [Example 1.421] it was not below 8.30.
As to `COc1cc(NC(N)=O)c(F)cc1-c1c2c(nn1-c1c(C)cccc1C)CCN(c1ccc(C(F)(F)F)cc1F)C2` [Example 1.111], the pIC50 is not below 8.30.
As to `CC[C@@H](c1ccccc1)N1CCc2nn(-c3c(C)cccc3C)c(-c3ccc(NC(N)=O)cc3F)c2C1` [Example 1.081], the pIC50 was 7.30 to 8.30.
As for `Cc1cccc(C)c1-n1nc2c(c1-c1cc(F)c(NC(N)=O)cc1F)CN(C1(C)CCOCC1)CC2` [Example 1.078], the negative logarithm of the IC50 (pIC50) was 6.30 to 7.30.
